Data from patent publication US11414431B2, “Substituted pyrazolo[1,5-a]pyrimidines as TYK2 inhibitors” (Nimbus Lakshmi, Inc., priority 2018, dated 2022).

molecular target: human TYK2 (JH2domain-pseudokinase) (Homo sapiens (Human), UniProt P29597); assay: TYK2 JH2 Domain Binding Assay (KINOMEscan); conditions: 11-point 3-fold dilution, top concentration 30,000 nM, duplicate; read-out: hTYK2_JH2_Binding (Kd; nM)
Experimental: Binding constants for compounds of the present invention against the JH2 domain were determined by the following protocol for a KINOMEscan® assay (DiscoveRx). A fusion protein of a partial length construct of human TYK2 (JH2domain-pseudokinase) (amino acids G556 to D888 based on reference sequence NP_003322.3) and the DNA binding domain of NFkB was expressed in transiently transfected HEK293 cells. From these HEK 293 cells, extracts were prepared in M-PER extraction buffer (Pierce) in the presence of Protease Inhibitor Cocktail Complete (Roche) and Phosphatase Inhibitor Cocktail Set II (Merck) per manufacturers' instructions. The TYK2(JH2domain-pseudokinase) fusion protein was labeled with a chimeric double-stranded DNA tag containing the NFkB binding site (5′-[…]-3′) fused to an amplicon for qPCR readout, which was added directly to the expression extract (the final concentration of DNA-tag in the binding reaction is 0.1 nM).
The liganded beads were blocked with excess biotin and washed with blocking buffer (SeaBlock (Pierce), 1% BSA, 0.05% Tween 20, 1 mM DTT) to remove unbound ligand and to reduce nonspecific binding.
Extracts were loaded with DNA-tag and diluted into the binding reaction in a two step process. First extracts were diluted 1:100 in 1× binding buffer (PBS/0.05% Tween 20/10 mM DTT/0.1% BSA/2 μg/ml sonicated salmon sperm DNA) containing 10 nM DNA-tag. This dilution was allowed to equilibrate at room temperature for 15 minutes and then subsequently diluted 1:100 in 1× binding buffer. […] Kds were determined using an 11-point 3-fold compound dilution series with three DMSO control points. […] The compounds were then diluted directly into the assays such that the final concentration of DMSO was 0.9%. All reactions performed in polypropylene 384-well plates. Each was a final volume of 0.02 mL. Assays were incubated with shaking for 1 hour at room temperature. Then the beads were pelleted and washed with wash buffer (lx PBS, 0.05% Tween 20) to remove displaced kinase and test compound. […] The qPCR protocol consisted of a 10 minute hot start at 95° C., followed by 35 cycles of 95° C. for 15 seconds, 60° C. for 1 minute.
Kds were determined using an 11-point 3-fold compound dilution series with three DMSO control points. […] The compounds were then diluted directly into the assays such that the final concentration of DMSO was 0.9%. The Kds were determined using a compound top concentration of 30,000 nM. Kd measurements were performed in duplicate.
Binding constants (Kds) were calculated with a standard dose-response curve using the Hill equation: […]
The Hill Slope was set to −1.

Chain of human TYK2 (JH2domain-pseudokinase) (P29597 556-888): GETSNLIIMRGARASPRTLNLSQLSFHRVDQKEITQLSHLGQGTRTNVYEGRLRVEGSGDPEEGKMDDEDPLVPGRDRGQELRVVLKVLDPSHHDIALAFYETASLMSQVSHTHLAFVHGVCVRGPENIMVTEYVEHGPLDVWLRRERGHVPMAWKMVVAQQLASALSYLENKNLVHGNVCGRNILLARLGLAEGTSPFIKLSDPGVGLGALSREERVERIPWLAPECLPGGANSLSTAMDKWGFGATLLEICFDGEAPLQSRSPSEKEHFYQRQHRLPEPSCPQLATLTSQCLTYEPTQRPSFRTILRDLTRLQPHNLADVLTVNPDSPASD

Row | Kd [nM] | SMILES
1 | 0.2 to 1 | CNc1cc(Nc2cccn(-c3ncco3)c2=O)nc2c(C(=O)N[C@@H]3CC[C@@H](OC)C3)cnn12 [Compound I-83, N-((1R,3R)-3-Methoxycyclopentyl)-7-(methylamino)-5-((1-(oxazol-2-yl)-2-oxo-1,2-dihydropyridin-3-yl)amino)pyrazolo[1,5-a]pyrimidine-3-carboxamide]
2 | 0.2 to 1 | CNc1cc(Nc2cccn(-c3ncco3)c2=O)nc2c(C(=O)N[C@H]3CC[C@H](OC)C3)cnn12 [Compound I-84, N-((1S,3S)-3-Methoxycyclopentyl)-7-(methylamino)-5-((1-(oxazol-2-yl)-2-oxo-1,2-dihydropyridin-3-yl)amino)pyrazolo[1,5-a]pyrimidine-3-carboxamide]
3 | 1 to 10 | CNc1cc(Nc2cccn([C@H]3CC[C@H]3O)c2=O)nc2c(C(=O)N[C@@H]3CC[C@@H](OC)C3)cnn12 [Compound I-85, 5-((1-((1S,2R)-2-Hydroxycyclobutyl)-2-oxo-1,2-dihydropyridin-3-yl)amino)-N-((1R,3R)-3-methoxycyclopentyl)-7-(methylamino)pyrazolo[1,5-a]pyrimidine-3-carboxamide]
4 | 1 to 10 | CNc1cc(Nc2cccn([C@H]3CC[C@H]3O)c2=O)nc2c(C(=O)N[C@H]3CC[C@H](OC)C3)cnn12 [Compound I-86, 5-((1-((1S,2R)-2-Hydroxycyclobutyl)-2-oxo-1,2-dihydropyridin-3-yl)amino)-N-((1S,3S)-3-methoxycyclopentyl)-7-(methylamino)pyrazolo[1,5-a]pyrimidine-3-carboxamide]
5 | > 10 | CNc1cc(Nc2cccn([C@H]3CCC[C@H]3O)c2=O)nc2c(C(=O)N[C@@H]3CC[C@@H](OC)C3)cnn12 [Compound I-87, 5-((1-((1S,2R)-2-Hydroxycyclopentyl)-2-oxo-1,2-dihydropyridin-3-yl)amino)-N-((1R,3R)-3-methoxycyclopentyl)-7-(methylamino)pyrazolo[1,5-a]pyrimidine-3-carboxamide]
6 | > 10 | CNc1cc(Nc2cccn([C@H]3CCC[C@H]3O)c2=O)nc2c(C(=O)N[C@H]3CC[C@H](OC)C3)cnn12 [Compound I-88, 5-((1-((1S,2R)-2-Hydroxycyclopentyl)-2-oxo-1,2-dihydropyridin-3-yl)amino)-N-((1S,3S)-3-methoxycyclopentyl)-7-(methylamino)pyrazolo[1,5-a]pyrimidine-3-carboxamide]
7 | > 10 | CNc1cc(Nc2cccn(C3CC(F)(F)C3)c2=O)nc2c(C(=O)N[C@H]3CCC[C@]3(C)O)cnn12 [Compound I-90, 5-((1-(3,3-Difluorocyclobutyl)-2-oxo-1,2-dihydropyridin-3-yl)amino)-N-((1S,2S)-2-hydroxy-2-methylcyclopentyl)-7-(methylamino)pyrazolo[1,5-a]pyrimidine-3-carboxamide]
8 | < 0.2 | CNc1cc(Nc2cccn(C3CC(F)(F)C3)c2=O)nc2c(C(=O)N[C@@H]3CCC[C@@]3(C)O)cnn12 [Compound I-91, 5-((1-(3,3-Difluorocyclobutyl)-2-oxo-1,2-dihydropyridin-3-yl)amino)-N-((1R,2R)-2-hydroxy-2-methylcyclopentyl)-7-(methylamino)pyrazolo[1,5-a]pyrimidine-3-carboxamide]
9 | > 10 | CNc1cc(Nc2cccn(C3CC(F)(F)C3)c2=O)nc2c(C(=O)N[C@@H]3CCC[C@@](C)(O)C3)cnn12 [Compound I-92, 5-((1-(3,3-Difluorocyclobutyl)-2-oxo-1,2-dihydropyridin-3-yl)amino)-N-((1R,3R)-3-hydroxy-3-methylcyclohexyl)-7-(methylamino)pyrazolo[1,5-a]pyrimidine-3-carboxamide]
10 | 0.2 to 1 | CNc1cc(Nc2cccn(C3CC(F)(F)C3)c2=O)nc2c(C(=O)N[C@H]3CCC[C@](C)(O)C3)cnn12 [Compound I-93, 5-((1-(3,3-Difluorocyclobutyl)-2-oxo-1,2-dihydropyridin-3-yl)amino)-N-((1S,3S)-3-hydroxy-3-methylcyclohexyl)-7-(methylamino)pyrazolo[1,5-a]pyrimidine-3-carboxamide]
11 | 1 to 10 | CNc1cc(Nc2cccn([C@H]3CC[C@@H]3O)c2=O)nc2c(C(=O)N[C@@H]3CCC[C@@H](OC)C3)cnn12 [Compound I-96, 5-((1-((1S,2S)-2-Hydroxycyclobutyl)-2-oxo-1,2-dihydropyridin-3-yl)amino)-N-((1R,3R)-3-methoxycyclohexyl)-7-(methylamino)pyrazolo[1,5-a]pyrimidine-3-carboxamide]
12 | 1 to 10 | CNc1cc(Nc2cccn([C@H]3CC[C@@H]3O)c2=O)nc2c(C(=O)N[C@H]3CCC[C@H](OC)C3)cnn12 [Compound I-97, 5-((1-((1S,2S)-2-Hydroxycyclobutyl)-2-oxo-1,2-dihydropyridin-3-yl)amino)-N-((1S,3S)-3-methoxycyclohexyl)-7-(methylamino)pyrazolo[1,5-a]pyrimidine-3-carboxamide]
13 | < 0.2 | CNc1cc(Nc2cccn([C@@H]3CC[C@@H]3O)c2=O)nc2c(C(=O)N[C@@H]3CCC[C@@H](OC)C3)cnn12 [Compound I-98, 5-((1-((1R,2S)-2-Hydroxycyclobutyl)-2-oxo-1,2-dihydropyridin-3-yl)amino)-N-((trans-1,3)-3-methoxycyclohexyl)-7-(methylamino)pyrazolo[1,5-a]pyrimidine-3-carboxamide]
14 | 0.2 to 1 | CNc1cc(Nc2cccn([C@@H]3CC[C@@H]3O)c2=O)nc2c(C(=O)N[C@@H]3CCC[C@@H](OC)C3)cnn12 [Compound I-99, 5-((1-((1R,2S)-2-Hydroxycyclobutyl)-2-oxo-1,2-dihydropyridin-3-yl)amino)-N-((1R,3R)-3-methoxycyclohexyl)-7-(methylamino)pyrazolo[1,5-a]pyrimidine-3-carboxamide]
15 | 0.2 to 1 | CNc1cc(Nc2cccn([C@@H]3CC[C@@H]3O)c2=O)nc2c(C(=O)N[C@H]3CCC[C@H](OC)C3)cnn12 [Compound I-100, 5-((1-((1R,2S)-2-Hydroxycyclobutyl)-2-oxo-1,2-dihydropyridin-3-yl)amino)-N-((1S,3S)-3-methoxycyclohexyl)-7-(methylamino)pyrazolo[1,5-a]pyrimidine-3-carboxamide]
16 | 1 to 10 | CNc1cc(Nc2cccn([C@H]3CC[C@H]3O)c2=O)nc2c(C(=O)NC3CCC[C@@H](OC)C3)cnn12 (stereo partly drawn) [Compound I-103, 5-((1-((1S,2R)-2-Hydroxycyclobutyl)-2-oxo-1,2-dihydropyridin-3-yl)amino)-N-((trans-1,3)-3-methoxycyclohexyl)-7-(methylamino)pyrazolo[1,5-a]pyrimidine-3-carboxamide]
17 | 1 to 10 | CNc1cc(Nc2cccn([C@H]3CC[C@H]3O)c2=O)nc2c(C(=O)N[C@@H]3CCC[C@@H](OC)C3)cnn12 [Compound I-104, 5-((1-((1S,2R)-2-Hydroxycyclobutyl)-2-oxo-1,2-dihydropyridin-3-yl)amino)-N-((1R,3R)-3-methoxycyclohexyl)-7-(methylamino)pyrazolo[1,5-a]pyrimidine-3-carboxamide]
18 | 1 to 10 | CNc1cc(Nc2cccn([C@H]3CC[C@H]3O)c2=O)nc2c(C(=O)N[C@H]3CCC[C@H](OC)C3)cnn12 [Compound I-105, 5-((1-((1S,2R)-2-Hydroxycyclobutyl)-2-oxo-1,2-dihydropyridin-3-yl)amino)-N-((1S,3S)-3-methoxycyclohexyl)-7-(methylamino)pyrazolo[1,5-a]pyrimidine-3-carboxamide]
19 | > 10 | CNc1cc(Nc2cccn(-c3coc(C)n3)c2=O)nc2c(C(=O)NC3CC3)cnn12 [Compound I-121]
